Target: T1, FXR ligand binding domain (Homo sapiens, UniProt Q96RI1)
T1 sequence (Q96RI1 1-486): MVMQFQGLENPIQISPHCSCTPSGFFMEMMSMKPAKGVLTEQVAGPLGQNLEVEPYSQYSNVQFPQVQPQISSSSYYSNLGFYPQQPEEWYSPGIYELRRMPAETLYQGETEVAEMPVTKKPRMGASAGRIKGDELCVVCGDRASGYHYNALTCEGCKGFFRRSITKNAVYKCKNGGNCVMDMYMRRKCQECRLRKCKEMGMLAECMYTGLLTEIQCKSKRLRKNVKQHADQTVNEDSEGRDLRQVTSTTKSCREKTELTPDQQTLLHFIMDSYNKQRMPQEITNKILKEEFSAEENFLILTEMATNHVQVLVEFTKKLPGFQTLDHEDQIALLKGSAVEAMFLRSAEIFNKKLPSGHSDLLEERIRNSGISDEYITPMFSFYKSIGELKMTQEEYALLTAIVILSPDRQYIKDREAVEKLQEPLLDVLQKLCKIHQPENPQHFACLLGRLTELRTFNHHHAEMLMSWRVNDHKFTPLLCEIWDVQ
Test: Radioligand binding assay (radioligand displacement, scintillation proximity)
Conditions: GST-FXR LBD fusion protein on SPA beads, radioligand 2,N-dicyclohexyl-2-[2-(2,4 dimethoxy-phenyl)-benzoimidazol-1-yl]-acetamide, RT 30 minutes
Experimental: The following tests were carried out in order to determine the activity of the compounds of formula I. Background information on the binding assay can be found in: Nichols J S et al. “Development of a scintillation proximity assay for peroxisome proliferator-activated receptor gamma ligand binding domain”, (1998) Anal. Biochem. 257: 112-119.
Bacterial and mammalian expression vectors were constructed to produce glutathione-s-transferase (GST) and Gal4 DNA binding domain (GAL) proteins fused to the ligand binding domain (LBD) of human FXR (aa 193-473). To accomplish this, the portions of the sequences encoding the FXR LBD were amplified by polymerase chain reaction (PCR) from a full-length clone by PCR and then subcloned into the plasmid vectors. The final clone was verified by DNA sequence analysis.
The induction, expression, and subsequent purification of GST-LBD fusion protein was performed in E. coli strain BL21(pLysS) cells by standard methods (Current Protocols in Molecular Biology, Wiley Press, ed. Ausubel et al).
Radioligand Binding Assay
Binding of test substances to the FXR ligand binding domain was assessed in a radioligand displacement assay. The assay was performed in a buffer consisting of 50 mM Hepes, pH 7.4, 10 mM NaCl, 5 mM MgCl2. For each reaction well in a 96-well plate, 40 nM of GST-FXR LBD fusion protein was bound to 10 μg glutathione ytrium silicate SPA beads (Pharmacia Amersham) in a final volume of 50 μl by shaking. A radioligand (eg. 40 nM) of 2,N-dicyclohexyl-2-[2-(2,4 dimethoxy-phenyl)-benzoimidazol-1-yl]-acetamide) was added, and the reaction incubated at RT for 30 minutes in the presence of test compounds followed by scintillation proximity counting. All binding assays were performed in 96-well plates and the amount of bound ligand was measured on a Packard TopCount using OptiPlates (Packard). Dose response curves were performed within a range of concentration from 6×10^−9 M to 2.5×10^−5 M.

Row | IC50 [µM] | SMILES
1 | 7.3 | O=C(O)c1ccc(NC(=O)C(c2c3ccccc3nn2-c2ccc(Cl)cc2)C2CCCCC2)cc1 (stereo not drawn) [Example 12, 4-{2-[2-(4-Chloro-phenyl)-2H-indazol-3-yl]-2-cyclohexyl-acetylamino}-benzoic acid]
2 | 4.9 | O=C(O)c1ccc(NC(=O)C(c2c3ccccc3nn2-c2ccc(Cl)cc2)C2CCCCC2)c(F)c1 (stereo not drawn) [Example 13, 4-{2-[2-(4-Chloro-phenyl)-2H-indazol-3-yl]-2-cyclohexyl-acetylamino}-3-fluoro-benzoic acid]
3 | 0.021 | O=C(Nc1ccc(OC2(C(=O)O)CC2)cc1F)[C@H](c1c2c(nn1-c1ccc(Cl)cc1)CCCC2)C1CCCCC1 [Example 23, (−)-1-(4-{2-[2-(4-Chloro-phenyl)-4,5,6,7-tetrahydro-2H-indazol-3-yl]-2-cyclohexyl-acetylamino}-3-fluoro-phenoxy)-cyclopropanecarboxylic acid]
